From publication PMC8745486, “Removal of Persistent Sulfamethoxazole and Carbamazepine from Water by Horseradish Peroxidase Encapsulated into Poly(Vinyl Chloride) Electrospun Fibers” (International Journal of Molecular Sciences, 2021) come the findings set out here.

Counter-ions that a name gives are not always drawn.

This assay concerns T1, horseradish peroxidase (HRP).
T1 construct: gene PRXC1A
The settings on record: read-out: Free HRP; free enzyme; pH 7, 25 °C; 0.1 to 5 mM ABTS; H2O2 not stated for the kinetic assay.

With `CCn1c(=NN=c2sc3cc(S(=O)(=O)O)ccc3n2CC)sc2cc(S(=O)(=O)O)ccc21` [ABTS, 2,2′-azino-bis(3-ehylbenzothiazoline-6-sulfonic acid) diammonium salt], the Km amounted to 1540 ± 130 µM.
